What was measured:
human M5 receptors = biological target: T1, human M5 receptors (Homo sapiens, UniProt P08912); test: hM5 PAM calcium mobilization assay; type: cell-based; settings: for improvement in hM5 PAM EC50 over the naked phenylsulfonamide: versus 6a
T1 sequence (P08912 1-532): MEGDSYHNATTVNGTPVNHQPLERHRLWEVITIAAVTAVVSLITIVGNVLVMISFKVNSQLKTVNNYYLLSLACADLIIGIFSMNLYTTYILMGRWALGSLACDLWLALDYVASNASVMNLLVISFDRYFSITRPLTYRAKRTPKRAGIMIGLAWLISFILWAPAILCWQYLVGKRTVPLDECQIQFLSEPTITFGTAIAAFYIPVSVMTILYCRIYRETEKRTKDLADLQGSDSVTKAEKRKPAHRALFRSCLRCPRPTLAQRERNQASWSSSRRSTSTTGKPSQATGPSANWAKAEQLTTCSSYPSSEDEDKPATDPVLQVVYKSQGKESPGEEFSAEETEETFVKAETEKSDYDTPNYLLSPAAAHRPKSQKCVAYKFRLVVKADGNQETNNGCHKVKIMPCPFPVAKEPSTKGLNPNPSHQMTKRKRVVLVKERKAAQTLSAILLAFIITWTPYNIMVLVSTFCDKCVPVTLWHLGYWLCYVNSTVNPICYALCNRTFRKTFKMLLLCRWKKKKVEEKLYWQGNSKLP

hM5 receptor [1] = biological target: T2, hM5 receptor (Homo sapiens, UniProt P08912); test: ACh CRC fold shift, calcium mobilization; type: cell-based; settings: compound at 10 μM; leftward shift in ACh potency at hM5; average ± SEM, n = 3–4
T2 sequence (P08912 1-532): T1 sequence (P08912 1-532)

[2] = in vitro metabolite identification; type: in vitro ADME
[3] = hepatic microsomal intrinsic clearance, human; type: in vitro ADME
hM2 = biological target: T3, hM2 (Homo sapiens, UniProt P08172); test: muscarinic selectivity calcium mobilization, hM2/Gqi5; type: cell-based; settings: CHO hM2/Gqi5
T3 sequence (P08172 1-466): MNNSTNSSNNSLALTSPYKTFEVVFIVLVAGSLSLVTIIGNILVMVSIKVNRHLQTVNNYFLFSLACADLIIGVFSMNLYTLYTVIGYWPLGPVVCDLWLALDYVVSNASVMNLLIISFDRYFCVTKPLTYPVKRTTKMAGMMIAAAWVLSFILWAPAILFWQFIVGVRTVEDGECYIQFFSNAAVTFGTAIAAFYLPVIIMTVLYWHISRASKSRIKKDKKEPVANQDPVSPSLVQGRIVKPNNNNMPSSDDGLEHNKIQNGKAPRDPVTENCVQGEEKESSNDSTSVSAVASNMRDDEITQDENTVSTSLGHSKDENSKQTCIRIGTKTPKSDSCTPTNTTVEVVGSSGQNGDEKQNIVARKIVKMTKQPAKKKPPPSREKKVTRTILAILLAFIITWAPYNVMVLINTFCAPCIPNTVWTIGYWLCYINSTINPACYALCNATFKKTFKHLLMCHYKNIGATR

hM1 = biological target: T4, hM1 (Homo sapiens, UniProt P11229); test: muscarinic selectivity calcium mobilization, hM1; type: cell-based; settings: hM5 versus hM1 PAM potency
T4 sequence (P11229 1-460): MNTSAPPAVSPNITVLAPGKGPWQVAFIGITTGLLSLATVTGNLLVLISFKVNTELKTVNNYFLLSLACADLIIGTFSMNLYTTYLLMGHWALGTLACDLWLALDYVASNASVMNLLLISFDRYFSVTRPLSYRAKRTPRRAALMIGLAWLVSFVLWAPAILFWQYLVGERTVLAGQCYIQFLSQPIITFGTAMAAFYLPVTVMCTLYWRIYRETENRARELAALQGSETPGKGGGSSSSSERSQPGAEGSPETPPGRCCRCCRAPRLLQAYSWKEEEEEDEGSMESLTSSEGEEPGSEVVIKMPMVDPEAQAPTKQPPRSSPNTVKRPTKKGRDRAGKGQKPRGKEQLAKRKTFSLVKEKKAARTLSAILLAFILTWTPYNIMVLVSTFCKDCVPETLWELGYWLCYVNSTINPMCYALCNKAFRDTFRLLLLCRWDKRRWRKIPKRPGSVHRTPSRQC

hM3 = hM3 (Homo sapiens, UniProt P20309); test: muscarinic selectivity calcium mobilization, hM3; type: cell-based; settings: hM5 versus hM3 PAM potency
Sequence of hM3 (P20309 whole entry): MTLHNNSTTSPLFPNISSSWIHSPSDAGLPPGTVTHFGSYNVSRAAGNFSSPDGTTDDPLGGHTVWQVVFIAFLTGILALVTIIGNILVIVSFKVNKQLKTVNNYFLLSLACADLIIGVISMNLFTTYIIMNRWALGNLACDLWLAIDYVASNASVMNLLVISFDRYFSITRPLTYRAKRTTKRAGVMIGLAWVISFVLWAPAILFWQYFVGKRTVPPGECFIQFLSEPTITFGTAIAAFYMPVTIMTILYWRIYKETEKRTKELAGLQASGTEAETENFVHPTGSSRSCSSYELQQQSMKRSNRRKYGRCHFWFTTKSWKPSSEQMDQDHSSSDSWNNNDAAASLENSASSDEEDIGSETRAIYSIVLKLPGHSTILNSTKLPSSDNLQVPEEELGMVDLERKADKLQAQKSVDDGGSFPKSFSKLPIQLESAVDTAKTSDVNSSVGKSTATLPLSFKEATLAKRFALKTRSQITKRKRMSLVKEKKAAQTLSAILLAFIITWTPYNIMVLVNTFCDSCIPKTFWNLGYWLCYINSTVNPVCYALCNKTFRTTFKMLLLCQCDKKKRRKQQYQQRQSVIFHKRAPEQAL

hM5 receptor [4] = biological target: T2, hM5 receptor; test: [3H]NMS competition binding, hM5 CHO membranes; settings: 0.3 nM [3H]NMS
[5] = hepatic microsomal intrinsic clearance, rat; type: in vitro ADME
hM4 = biological target: T5, hM4 (Homo sapiens, UniProt P08173); test: muscarinic selectivity calcium mobilization, hM4/Gqi5; type: cell-based; settings: CHO hM4/Gqi5
T5 sequence (P08173 1-479): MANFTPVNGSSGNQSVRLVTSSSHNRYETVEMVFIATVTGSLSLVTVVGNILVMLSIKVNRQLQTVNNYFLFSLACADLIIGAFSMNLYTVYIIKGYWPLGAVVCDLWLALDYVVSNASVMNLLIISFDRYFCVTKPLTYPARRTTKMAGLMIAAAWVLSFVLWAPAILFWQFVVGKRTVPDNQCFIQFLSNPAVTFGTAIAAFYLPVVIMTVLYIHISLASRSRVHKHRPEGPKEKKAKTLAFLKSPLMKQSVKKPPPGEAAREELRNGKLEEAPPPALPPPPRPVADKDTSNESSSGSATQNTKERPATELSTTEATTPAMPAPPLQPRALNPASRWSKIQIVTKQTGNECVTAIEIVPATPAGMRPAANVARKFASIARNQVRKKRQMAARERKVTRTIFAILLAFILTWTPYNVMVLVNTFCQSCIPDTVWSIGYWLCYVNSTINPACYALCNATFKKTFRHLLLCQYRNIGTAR

CCN(Cc1ccccc1)C(=O)C1CCN(S(=O)(=O)c2ccc3occc3c2)CC1 [6o]
improvement in hM5 PAM EC50 over the naked phenylsulfonamide (human M5 receptors): approximately 3 fold

CCN(Cc1ccccc1)C(=O)C1CCN(S(=O)(=O)c2ccc3[nH]ncc3c2)CC1 [6p]
improvement in hM5 PAM EC50 over the naked phenylsulfonamide (human M5 receptors): approximately 3 fold

CCN(Cc1ccccc1)C(=O)C1CCN(S(=O)(=O)c2ccc3cn[nH]c3c2)CC1 [6q]
improvement in hM5 PAM EC50 over the naked phenylsulfonamide (human M5 receptors): approximately 3 fold

CCN(C(=O)C1CCN(S(=O)(=O)c2ccc(OC)cc2)CC1)[C@H](C)c1ccccc1 [7b]
ACh fold shift (hM5 receptor [1]): 7- to 12 fold
improvement in hM5 potency relative to des-methyl analog 6b (human M5 receptors): 3 fold

CCN(C(=O)C1CCN(S(=O)(=O)c2ccc3[nH]ncc3c2)CC1)[C@H](C)c1ccccc1 [7g]
primary site of metabolism [2]: N-ethyl moiety as the primary site of metabolism
ACh fold shift (hM5 receptor [1]): 7- to 12 fold

CCN(Cc1ccccc1C(F)(F)F)C(=O)C1CCN(S(=O)(=O)c2ccc3cn[nH]c3c2)CC1 [8j]
ACh fold shift (hM5 receptor [1]): 7- to 12 fold

CCN(Cc1ccccc1C(F)(F)F)C(=O)C1CCN(S(=O)(=O)c2ccc3[nH]ncc3c2)CC1 [8n, 1-((1H-Indazol-5-yl)sulfonyl)-N-ethyl-N-(2-(trifluoromethyl)benzyl)piperidine-4-carboxamide]
hepatic microsomal intrinsic clearance CLint [3]: 540 mL min^–1 kg^–1
predicted hepatic clearance CLhep [3]: 20 mL min^–1 kg^–1
CLint scaled at 1 µM ([3]; liver microsomes, pH 7.4): 540 mL/min/kg
predicted CLhep (mL/min/kg) ([3]; well-stirred model from CLint, not corrected for fu plasma): human: 20 mL/min/kg
activity at hM2 (in words) (hM2): no activity
selectivity over hM1 (hM1): greater than 10 fold
ACh fold shift (hM5 receptor [1]): 7- to 12 fold
selectivity over hM3 (hM3): greater than 10 fold
effect on [3H]NMS binding (in words) (hM5 receptor [4]): no inhibitory effect
hM5 PAM potency relative to des-CF3 congener 6p (human M5 receptors; more potent): 8 fold
hepatic microsomal intrinsic clearance CLint ([5]; rat): 2600 mL min^–1 kg^–1
predicted hepatic clearance CLhep ([5]; rat): 68 mL min^–1 kg^–1
CLint scaled at 1 µM ([5]; rat, liver microsomes, pH 7.4): 2600 mL/min/kg
predicted CLhep (mL/min/kg) ([5]; rat, well-stirred model from CLint, not corrected for fu plasma): rat: 68 mL/min/kg
activity at hM4 (in words) (hM4): no activity

O=C(C1CCN(S(=O)(=O)c2ccc3[nH]ncc3c2)CC1)N(Cc1ccccc1C(F)(F)F)C1CC1 [9d]
activity at hM5 (in words) (human M5 receptors; PAM, calcium mobilization): complete absence of activity
change of intrinsic microsomal clearance (in words) ([5]; relative to the other analogs (rat CLint > 500)): reduce intrinsic microsomal clearance by an order of magnitude

From paper PMC4175000 (Journal of Medicinal Chemistry, 2014)
